Measurements published in ChEMBL document CHEMBL1201862, “PubChem BioAssay data set” (2004).
Active and inactive are the calls of the source. Cut-off read from the data, not from the text of the source, for most assays here: actives have a measured EC50 and inactives only a lower limit.

What was measured:
[1] = target: T1, Heat shock factor protein 1 (Mus musculus, UniProt P38532); assay: inhibition of MG132-induced HSE-luciferase signal, confirmation, cell-based, NIH3T3, luminescence, dose retest (AID 2382); format: functional;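 note: NIH3T3 fibroblasts with HSF1-driven luciferase reporter stressed by proteasome inhibitor MG132; luminescence from HSF1-driven luciferase expression after 8 hours of MG132 stress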
T1 sequence (P38532 whole entry): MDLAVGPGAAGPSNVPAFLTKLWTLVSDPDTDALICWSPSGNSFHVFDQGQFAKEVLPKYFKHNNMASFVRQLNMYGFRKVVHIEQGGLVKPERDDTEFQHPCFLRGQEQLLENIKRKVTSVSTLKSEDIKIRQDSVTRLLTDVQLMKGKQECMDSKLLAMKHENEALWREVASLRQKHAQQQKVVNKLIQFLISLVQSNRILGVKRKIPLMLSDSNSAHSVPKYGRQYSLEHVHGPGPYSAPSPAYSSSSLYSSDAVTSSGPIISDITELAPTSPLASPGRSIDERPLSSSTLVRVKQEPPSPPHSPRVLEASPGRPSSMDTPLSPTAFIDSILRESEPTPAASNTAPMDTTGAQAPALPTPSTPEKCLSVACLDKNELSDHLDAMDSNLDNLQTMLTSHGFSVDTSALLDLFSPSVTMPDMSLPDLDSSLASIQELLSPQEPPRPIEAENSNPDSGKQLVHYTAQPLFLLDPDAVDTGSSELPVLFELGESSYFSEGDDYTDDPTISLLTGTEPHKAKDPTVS

[2] = inhibitors of firefly luciferase expression or activity, dose response, H4 neuroglioma cells, luminescence (AID 1990); format: functional, cell-based
[3] = Luminescence Cell-Based Dose Response HTS to Identify Inhibitors of 5'UTR Stem-Loop Driven Prion Protein mRNA Translation in H4 Neuroglioblastoma Cells. [Related pubchem assays: 1827 (Project Summary), 1813 (Primary HTS)]; format: functional
[4] = inhibitors of SNCA 5'UTR-driven reporter translation, confirmation, H4 neuroglioma cells, luminescence (AID 1988); format: functional, cell-based
[5] = target: T2, Replicative DNA helicase DnaB (Mycobacterium tuberculosis, UniProt P9WMR3); assay: DnaB intein splicing inhibitors, dose response, biochemical, cell-free fluorescence (AID 449749); format: functional
T2 sequence (P9WMR3 whole entry): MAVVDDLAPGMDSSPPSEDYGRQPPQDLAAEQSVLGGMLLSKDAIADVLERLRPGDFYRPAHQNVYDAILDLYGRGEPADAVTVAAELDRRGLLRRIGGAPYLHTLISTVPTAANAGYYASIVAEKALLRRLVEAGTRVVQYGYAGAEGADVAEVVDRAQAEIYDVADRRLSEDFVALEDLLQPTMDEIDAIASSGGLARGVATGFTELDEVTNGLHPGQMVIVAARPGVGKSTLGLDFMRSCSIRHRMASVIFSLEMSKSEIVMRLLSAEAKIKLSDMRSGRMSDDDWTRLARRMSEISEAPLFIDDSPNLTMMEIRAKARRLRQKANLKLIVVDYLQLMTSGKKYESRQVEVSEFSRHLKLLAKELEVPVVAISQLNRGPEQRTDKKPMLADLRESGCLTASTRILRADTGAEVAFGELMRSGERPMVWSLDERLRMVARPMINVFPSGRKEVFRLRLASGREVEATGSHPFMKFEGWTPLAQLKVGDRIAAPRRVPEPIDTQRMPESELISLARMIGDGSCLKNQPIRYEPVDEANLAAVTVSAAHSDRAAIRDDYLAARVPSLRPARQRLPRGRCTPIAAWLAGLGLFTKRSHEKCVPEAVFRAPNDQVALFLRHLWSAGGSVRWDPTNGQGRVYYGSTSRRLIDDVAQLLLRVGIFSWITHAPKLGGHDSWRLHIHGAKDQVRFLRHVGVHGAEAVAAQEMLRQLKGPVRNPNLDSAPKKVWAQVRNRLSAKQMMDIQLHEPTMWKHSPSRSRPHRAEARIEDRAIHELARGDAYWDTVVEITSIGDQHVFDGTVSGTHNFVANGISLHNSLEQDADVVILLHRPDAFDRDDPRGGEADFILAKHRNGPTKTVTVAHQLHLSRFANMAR

Protein RecA = target: T3, Protein RecA (Mycobacterium tuberculosis, UniProt P9WHJ3); assay: Fluorescence Cell-Free Homogeneous Dose Retest to Identify Inhibitors of RecA-Intein Splicing Activity. [Related pubchem assays (depositor defined):AID2097, AID2223, AID489010, AID492950]; format: functional
T3 sequence (P9WHJ3 whole entry): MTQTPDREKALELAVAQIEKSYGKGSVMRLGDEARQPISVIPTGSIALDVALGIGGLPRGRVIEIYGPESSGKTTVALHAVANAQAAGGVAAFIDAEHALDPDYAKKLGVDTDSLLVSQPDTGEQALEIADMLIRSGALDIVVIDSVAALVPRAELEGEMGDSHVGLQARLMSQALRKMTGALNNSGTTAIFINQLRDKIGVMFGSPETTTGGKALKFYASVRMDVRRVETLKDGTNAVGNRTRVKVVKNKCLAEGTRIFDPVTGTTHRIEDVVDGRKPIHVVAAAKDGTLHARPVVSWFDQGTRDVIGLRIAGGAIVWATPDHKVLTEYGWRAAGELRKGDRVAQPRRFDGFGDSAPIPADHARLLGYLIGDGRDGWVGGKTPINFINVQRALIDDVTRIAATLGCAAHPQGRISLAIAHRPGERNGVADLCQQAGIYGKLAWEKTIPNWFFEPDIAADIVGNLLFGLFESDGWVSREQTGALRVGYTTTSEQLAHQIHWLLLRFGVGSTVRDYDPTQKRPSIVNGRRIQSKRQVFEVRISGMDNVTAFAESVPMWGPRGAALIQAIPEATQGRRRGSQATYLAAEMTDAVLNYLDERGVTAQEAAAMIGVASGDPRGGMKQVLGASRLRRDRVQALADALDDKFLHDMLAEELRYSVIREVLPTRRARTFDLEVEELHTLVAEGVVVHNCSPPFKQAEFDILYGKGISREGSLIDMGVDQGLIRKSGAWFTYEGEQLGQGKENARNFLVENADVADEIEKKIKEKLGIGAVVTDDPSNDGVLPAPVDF

Protein skinhead-1 = target: T4, Protein skinhead-1 (Caenorhabditis elegans, UniProt P34707); format: functional
T4 sequence (P34707 whole entry): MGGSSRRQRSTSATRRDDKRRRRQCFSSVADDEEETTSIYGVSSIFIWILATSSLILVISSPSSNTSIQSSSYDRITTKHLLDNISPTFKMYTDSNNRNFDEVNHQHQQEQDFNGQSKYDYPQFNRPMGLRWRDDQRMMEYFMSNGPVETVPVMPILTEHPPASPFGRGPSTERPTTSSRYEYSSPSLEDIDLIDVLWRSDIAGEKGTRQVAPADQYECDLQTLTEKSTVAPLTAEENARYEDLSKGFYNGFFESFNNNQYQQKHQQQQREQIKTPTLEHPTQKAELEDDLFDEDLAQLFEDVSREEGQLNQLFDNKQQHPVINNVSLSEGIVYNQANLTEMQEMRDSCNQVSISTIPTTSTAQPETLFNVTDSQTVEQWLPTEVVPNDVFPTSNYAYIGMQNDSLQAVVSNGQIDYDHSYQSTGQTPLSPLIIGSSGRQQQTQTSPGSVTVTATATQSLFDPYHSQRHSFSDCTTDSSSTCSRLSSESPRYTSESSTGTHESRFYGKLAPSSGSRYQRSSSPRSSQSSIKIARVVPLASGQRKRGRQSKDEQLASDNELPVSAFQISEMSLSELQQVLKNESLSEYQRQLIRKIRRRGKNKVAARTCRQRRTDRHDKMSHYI

[6] = Luminescence Cell-Based Dose Response HTS to Identify Activators of Luciferase Translation or Activity in H4 […] Cells. [Related pubchem assays: 1829 (Project Summary), 1814 (Primary HTS)]; format: functional
H4 = assay: Luminescence Cell-Based Dose Response HTS to Identify Activators of 5'UTR Stem-Loop Driven Prion Protein mRNA Translation in H4 Neuroglioblastoma Cells. [Related pubchem assays: 1829 (Project Summary), 1814 (Primary HTS)]; format: functional; conditions: Homo sapiens

Compound: CCOc1ccc(CNS(=O)(=O)c2c(C)nc3scc(C)n3c2=O)cc1OC
- EC50 [1]: > 195 µM (not active)

Compound: O=C(Nc1ccc(N2CCN(c3ccc(O)cc3)CC2)cc1)Oc1ccccc1
- EC50 [1]: > 195 µM (not active)

Compound: CCOc1ccccc1-n1c(CN2CCN(C(=O)c3ccco3)CC2)nc2ccccc2c1=O
- EC50 [2]: 8.25 µM (active)
- EC50 [3]: 8.43 µM (active)
- EC50 [4]: 7.97 µM (active)

Compound: Cc1n[nH]c2c1C(c1ccco1)C(C#N)=C(N)O2 (centres undefined)
- AC50 [5]: 54.1 µM (active)
- EC50 (Protein RecA): 4.28 µM (active)

Compound: CC(C)CCNC(=O)c1cnn2c(C(F)(F)F)cc(-c3ccco3)nc12
- IC50 (Protein skinhead-1): > 100 µM (inactive)

Compound: O=C(Nc1ccccc1-c1nc2ccccc2s1)c1cccnc1
- EC50 [1]: > 195 µM (not active)

Compound: N#CC1=C(N)Oc2[nH]nc(-c3cccs3)c2C1c1ccoc1 (centres undefined)
- AC50 [5]: 10.4 µM (active)
- EC50 (Protein RecA): 7.09 µM (active)

Compound: O=C(c1cnn2c(C(F)F)cc(-c3ccccc3)nc12)N1CCCc2ccccc21
- EC50 [2]: 19.2 µM (active)
- EC50 [3]: 23.8 µM (active)
- EC50 [4]: 26.3 µM (active)

Compound: COc1ccc(CNC(=O)C2CCN(S(=O)(=O)c3ccc4c(c3)C(C)(C)C(=O)N4C)CC2)cc1
- EC50 [1]: 55.2 µM (active)

Compound: Brc1ccc(-c2nc(-c3ccncc3)no2)o1
- IC50 (Protein skinhead-1): 86.1 µM (inactive)

Compound: O=[N+]([O-])c1ccc(OCc2cnc(Cl)s2)cc1
- IC50 (Protein skinhead-1): 50.3 µM (inactive)

Compound: COc1ccc(C=O)cc1CN1CCCN(Cc2ccc(Cl)cc2)S1(=O)=O
- EC50 [1]: > 195 µM (not active)

Compound: Cc1ccccc1Cn1nnc2c1C(=O)c1ccccc1C2=O
- EC50 [2]: > 120 µM (not active)
- EC50 [3]: > 120 µM (not active)
- EC50 [4]: > 60 µM (not active)

Compound: O=S(=O)(O)Oc1c[nH]c2ccccc12
- AC50 [5]: 1.34 µM (active)
- EC50 (Protein RecA): 0.155 µM (active)

Compound: CCCC(=O)Nc1cccc(NC(=O)c2cccc([N+](=O)[O-])c2C)c1
- EC50 [1]: 20.5 µM (active)

Compound: O=C(Nc1nc(C(F)(F)F)n[nH]1)c1cccs1
- AC50 [5]: 3.65 µM (active)
- EC50 (Protein RecA): 9.84 µM (active)

Compound: COc1cc(C2NC(=O)NC(C)=C2C(=O)OCC2CCCO2)ccc1O (centres undefined)
- EC50 [1]: > 195 µM (not active)

Compound: COCCCNC(=O)COc1ccc2oc3c(c2c1)CCCC3
- IC50 (Protein skinhead-1): > 100 µM (inactive)

Compound: O=S(=O)(c1cc(Cl)ccc1Cl)N1CCC2(CC1)OCCO2
- EC50 [1]: > 195 µM (not active)

Compound: O=C(OCc1ccccc1)c1ccc2c(c1)-c1ccccc1C2=O
- EC50 [6]: 14.8 µM (active)
- EC50 (H4): 11.1 µM (active)

Compound: Cc1ccc(Cl)c(N/C=C/C(=O)c2ccccc2)c1
- IC50 (Protein skinhead-1): 27.9 µM (active)

Compound: Cc1ccc2cc3cc(C(=O)N4CC(C)CC(C)C4)oc3nc2c1 (centres undefined)
- IC50 (Protein skinhead-1): > 100 µM (inactive)

Compound: COCCCn1c(=O)c2ccccc2n(Cc2cccc(C)c2)c1=O
- IC50 (Protein skinhead-1): > 100 µM (inactive)

Compound: CC(Oc1ccc(Cl)cc1)c1ccnn1S(C)(=O)=O (centres undefined)
- IC50 (Protein skinhead-1): > 100 µM (inactive)

Compound: CCC(=O)CCC(=O)c1ccc2ccccc2c1
- EC50 [1]: > 195 µM (not active)

Compound: Cc1ccc(-c2nnc(-c3cccs3)o2)cc1
- IC50 (Protein skinhead-1): 35.5 µM (active)

Compound: O=C(Nc1cc(-c2ccccc2)n[nH]1)c1ccccc1
- IC50 (Protein skinhead-1): > 100 µM (inactive)

Compound: N#Cc1cc([N+](=O)[O-])ccc1NC(=O)COC(=O)CCC1CCCCC1
- AC50 [5]: 1.72 µM (active)
- EC50 (Protein RecA): 3.31 µM (active)

Compound: O=C(c1cnn2c(C(F)(F)F)cc(-c3ccco3)nc12)N1CCCc2ccccc21
- IC50 (Protein skinhead-1): > 100 µM (inactive)

Compound: Cn1c(SCC(=O)NCC2CCCO2)ncc(C(=O)Nc2ccc(F)cc2)c1=O (centres undefined)
- AC50 [5]: 0.51 µM (active)
- EC50 (Protein RecA): 0.315 µM (active)

Compound: O=S(=O)(Nc1c(O)ccc2ccccc12)c1ccc(F)cc1
- AC50 [5]: 12.2 µM (active)
- EC50 (Protein RecA): 1.16 µM (active)

Compound: CSc1ccccc1C(=O)NCCOc1cccc(C)c1
- IC50 (Protein skinhead-1): > 100 µM (inactive)

Compound: CC(=O)/C(=N\Nc1ccc(Cl)cc1)Sc1nnc(-c2ccccc2)n1-c1ccccc1
- EC50 [1]: > 195 µM (not active)

Compound: Cc1cc(=O)n(-c2ccccc2Cl)[nH]1
- AC50 [5]: 10.7 µM (active)
- EC50 (Protein RecA): 5.4 µM (active)

Compound: C/C(CC(=O)Nc1ccccn1)=N\NC(=O)c1cccc(C)c1
- AC50 [5]: 20.1 µM (active)
- EC50 (Protein RecA): 7.75 µM (active)

Compound: COc1ccc(CCN2C(=O)CS/C2=N\NC(=O)c2ccc(C(C)(C)C)cc2)cc1OC
- EC50 [2]: 22.4 µM (active)
- EC50 [3]: 21.1 µM (active)
- EC50 [4]: > 120 µM (not active)
